Test system: alpha-MyHC
Assay: alpha-MyHC cytoblot process in neonatal rat ventricular myocytes (NRVM)
Assay type: cell-based
Conditions: NRVM, 72 hours; for EC50: alpha-MyHC cytoblot
[1] = Table 2 (esters), maximum of dose response fit
[2] = Table 4, maximum of dose response fit

Compound | EC50 (Table 2 (esters)) | Max Plateau [1] | further results
COC(=O)C1=C(C(C)C)Nc2sc(C(=O)c3ccc(Cl)c(Cl)c3)c(N)c2C1c1ccccc1 (stereo not shown) [Compound 116] | 70 nM | 107.57 per cent fraction of low control | –
COCCOC(=O)C1=C(C)Nc2sc(C(=O)c3ccc(Cl)c(Cl)c3)c(N)c2C1c1ccccc1 (stereo not shown) [Compound 119] | 142 nM | 234.93 per cent fraction of low control | –
COCC1=C(C(=O)OC)C(c2ccccc2)c2c(sc(C(=O)c3ccc(Cl)c(Cl)c3)c2N)N1 (stereo not shown) [Compound 120] | 157 nM | 140.79 per cent fraction of low control | –
CC1=C(C(=O)OCCN2CCOCC2)C(c2ccccc2)c2c(sc(C(=O)c3ccc(Cl)c(Cl)c3)c2N)N1 (stereo not shown) [Compound 126] | 210 nM | 193.06 ± 11.02 per cent fraction of low control | –
C=CCOC(=O)C1=C(C)Nc2sc(C(=O)c3ccc(Cl)c(Cl)c3)c(N)c2C1c1ccccc1 (stereo not shown) [Compound 127] | 54 nM | 195.71 ± 29.42 per cent fraction of low control | –
CC1=C(C(=O)OCC2CCCN2C)C(c2ccccc2)c2c(sc(C(=O)c3ccc(Cl)c(Cl)c3)c2N)N1 (stereo not shown) [Compound 129] | 4580 nM | 150.08 ± 9.89 per cent fraction of low control | –
COC(=O)C1=C(C(C)(C)C)Nc2sc(C(=O)c3ccc(Cl)c(Cl)c3)c(N)c2C1c1ccccc1 (stereo not shown) [Compound 131] | 2900 nM | 158.97 per cent fraction of low control | –
COC(=O)C1=C(C2CC2)Nc2sc(C(=O)c3ccc(Cl)c(Cl)c3)c(N)c2C1c1ccccc1 (stereo not shown) [Compound 133] | 71.5 nM | 180.24 per cent fraction of low control | –
COC(=O)C1=C(C(C)C)Nc2sc(C(=O)c3ccc(Cl)c(Cl)c3)c(N)c2C1c1cccc([N+](=O)[O-])c1 (stereo not shown) [Compound 134] | – | 98.33 per cent fraction of low control | –
CC1=C(C(=O)OC(C)C)C(c2ccccc2)c2c(sc(C(=O)c3ccc(Cl)c(Cl)c3)c2N)N1 (stereo not shown) [Compound 135] | 118 nM | 186.32 per cent fraction of low control | –
CCC1=C(C(=O)OC)C(c2c(F)cccc2F)c2c(sc(C(=O)c3ccc(Cl)c(Cl)c3)c2N)N1 (stereo not shown) [Compound 137] | 15.6 nM | 213.90 per cent fraction of low control | –
CCC1=C(C(=O)OC)C(c2ccccc2)c2c(sc(C(=O)c3cccc([N+](=O)[O-])c3)c2N)N1 (stereo not shown) [Compound 139] | 6.91 nM | 281.08 per cent fraction of low control | –
CCC1=C(C(=O)OC)C(c2ccccc2F)c2c(sc(C(=O)c3cccc([N+](=O)[O-])c3)c2N)N1 (stereo not shown) [Compound 140] | 2.42 nM | 266.63 per cent fraction of low control | –
CCC1=C(C(=O)OC)C(c2c(F)cccc2F)c2c(sc(C(=O)c3cccc([N+](=O)[O-])c3)c2N)N1 (stereo not shown) [Compound 141] | 14.3 nM | 261.69 per cent fraction of low control | –
CCOC(=O)C1=C(CC)Nc2sc(C(=O)c3ccc(Cl)c(Cl)c3)c(N)c2C1c1ccccc1F (stereo not shown) [Compound 142] | 6.78 nM | 194.32 per cent fraction of low control | –
CCC1=C(C(=O)OC)C(c2ccccc2)c2c(sc(C(=O)c3cccc(C#N)c3)c2N)N1 (stereo not shown) [Compound 143] | 5.24 nM | 290.53 per cent fraction of low control | –
COC(=O)C1=C(C2CC2)Nc2sc(C(=O)c3ccc(Cl)c(Cl)c3)c(N)c2C1c1ccccc1F (stereo not shown) [Compound 144] | 63.3 nM | 187.17 per cent fraction of low control | –
CCOC(=O)C1=C(CC)Nc2sc(C(=O)c3ccc(Cl)cc3Cl)c(N)c2C1c1ccccc1 (stereo not shown) [Compound 145] | 123 nM | 224.48 per cent fraction of low control | –
CCOC(=O)C1=C(CC)Nc2sc(C(=O)c3cc(Cl)ccc3Cl)c(N)c2C1c1ccccc1 (stereo not shown) [Compound 146] | 4.03 nM | 213.49 per cent fraction of low control | –
CCOC(=O)C1=C(CC)Nc2sc(C(=O)c3cc(C(F)(F)F)cc(C(F)(F)F)c3)c(N)c2C1c1ccccc1 (stereo not shown) [Compound 149] | 11.1 nM | 207.18 per cent fraction of low control | –
CCC1=C(C(=O)OC)C(c2ccccc2F)c2c(sc(C(=O)c3ccc(Cl)c(C)c3)c2N)N1 (stereo not shown) [Compound 150] | 21.4 nM | 228.28 per cent fraction of low control | –
CCOC(=O)C1=C(CC)Nc2sc(C(=O)c3cc(F)cc(F)c3)c(N)c2C1c1ccccc1 (stereo not shown) [Compound 151] | 10.1 nM | 273.61 per cent fraction of low control | –
CCOC(=O)C1=C(CC)Nc2sc(C(=O)c3cccc(C(=O)O)c3)c(N)c2C1c1ccccc1 (stereo not shown) [Compound 152] | 2910 nM | 238.69 per cent fraction of low control | –
CCC1=C(C(=O)OC)C(c2ccc(F)cc2F)c2c(sc(C(=O)c3ccc(Cl)c(Cl)c3)c2N)N1 (stereo not shown) [Compound 153] | 15.3 nM | 234.66 per cent fraction of low control | –

Compound | EC50 (Table 2 (esters)) | Max Plateau [1] | further results
COC(=O)C1=C(CCc2ccccc2)Nc2sc(C(=O)c3ccc(Cl)c(Cl)c3)c(N)c2C1c1ccccc1F (stereo not shown) [Compound 154] | 303 nM | 125.87 per cent fraction of low control | –
CCC1=C(C(=O)OC)C(c2cccc(Cl)c2F)c2c(sc(C(=O)c3ccc(Cl)c(Cl)c3)c2N)N1 (stereo not shown) [Compound 155] | 19.3 nM | 224.86 per cent fraction of low control | –
CCC1=C(C(=O)OC)C(c2cccc(Cl)c2F)c2c(sc(C(=O)c3cccc([N+](=O)[O-])c3)c2N)N1 (stereo not shown) [Compound 156] | 3.69 nM | 243.78 per cent fraction of low control | –
CCC1=C(C(=O)OC2CCCCC2)C(c2ccccc2)c2c(sc(C(=O)c3ccc(Cl)c(Cl)c3)c2N)N1 (stereo not shown) [Compound 160] | 75.4 nM | 186.95 per cent fraction of low control | –
CCC1=C(C(=O)OCC(C)C)C(c2ccccc2)c2c(sc(C(=O)c3ccc(Cl)c(Cl)c3)c2N)N1 (stereo not shown) [Compound 161] | 35.4 nM | 232.35 per cent fraction of low control | –
CCC1=C(C(=O)OC)C(c2ccccc2F)c2c(sc(C(=O)c3cccc(C#N)c3)c2N)N1 (stereo not shown) [Compound 164] | 2.83 nM | 279.90 per cent fraction of low control | –
CCC1=C(C(=O)OC)C(c2ccccc2F)c2c(sc(C(=O)c3cccc(Cl)c3)c2N)N1 (stereo not shown) [Compound 167] | 111000 nM | 255.95 per cent fraction of low control | –
CCOC(=O)C1=C(CC)Nc2sc(C(=O)c3ccc(Cl)c(Cl)c3)c(N)c2C1c1ccncc1F (stereo not shown) [Compound 168] | 7.12 nM | 239.64 per cent fraction of low control | –
CCOC(=O)C1=C(CC)Nc2sc(C(=O)c3ccc(Cl)c(Cl)c3)c(N)c2C1c1ccncc1Cl (stereo not shown) [Compound 169] | 4.95 nM | 261.04 per cent fraction of low control | –
CCC1=C(C(=O)OC)C(c2cc(F)cc(F)c2)c2c(sc(C(=O)c3ccc(F)c(F)c3)c2N)N1 (stereo not shown) [Compound 170] | 1.89 nM | 262.16 per cent fraction of low control | –
CCC1=C(C(=O)OC)C(c2cc(F)cc(F)c2)c2c(sc(C(=O)c3ccc(Cl)c(Cl)c3)c2N)N1 (stereo not shown) [Compound 171] | 0.828 nM | 296.79 per cent fraction of low control | –
CCC1=C(C(=O)OC)C(c2cc(F)cc(F)c2)c2c(sc(C(=O)c3ccccc3)c2N)N1 (stereo not shown) [Compound 172] | 0.478 nM | 304.08 per cent fraction of low control | –
CCOC(=O)C1=C(CC)Nc2sc(C(=O)c3ccc(F)c(F)c3)c(N)c2C1c1ccncc1F (stereo not shown) [Compound 173] | – | 257.43 per cent fraction of low control | –
CCOC(=O)C1=C(CC)Nc2sc(C(=O)c3cccnc3)c(N)c2C1c1ccncc1F (stereo not shown) [Compound 174, 3-amino-6-ethyl-4-(3 fluoro-pyridin-4-yl)-2-(pyridine-3-carbonyl)-4,7 dihydro-thieno[2,3-b]pyridine-5-carboxylic acid ethyl ester] | – | 263.57 per cent fraction of low control | –
CCC1=C(C(=O)OCC(C)OC)C(c2ccccc2F)c2c(sc(C(=O)c3cccc(C#N)c3)c2N)N1 (stereo not shown) [Compound 180] | 63.2 nM | 279.68 ± 65.32 per cent fraction of low control | –
CCC1=C(C(=O)OC(C)COC)C(c2ccccc2F)c2c(sc(C(=O)c3cccc(Cl)c3)c2N)N1 (stereo not shown) [Compound 181] | 21 nM | 240.80 ± 29.53 per cent fraction of low control | –
CCC1=C(C(=O)OC(C)COC)C(c2ccccc2F)c2c(sc(C(=O)c3cccc(C#N)c3)c2N)N1 (stereo not shown) [Compound 182] | 60.9 nM | 251.54 ± 25.09 per cent fraction of low control | –
CCC1=C(C(=O)OCC(C)OC)C(c2ccccc2F)c2c(sc(C(=O)c3cccc(C#N)c3)c2N)N1 (stereo not shown) [Compound 185] | 1710 nM | 172.89 ± 23.52 per cent fraction of low control | –
CCC1=C(C(=O)OC(C)COC)C(c2ccccc2F)c2c(sc(C(=O)c3cccc(C#N)c3)c2N)N1 (stereo not shown) [Compound 193] | 77.6 nM | 230.28 ± 6.46 per cent fraction of low control | –
CCOC(=O)C1=C(C)Nc2sc(C(=O)c3cccc(Br)c3)c(N)c2C1(C)c1ccccc1 (stereo not shown) [Compound 197] | – | – | EC50 (Rattus norvegicus, Ventricular myocyte, Table 4): 792 nM; Emax (Rattus norvegicus, Ventricular myocyte, Table 4, maximum of dose response fit, read-out: Max Plateau): 160 ± 10.9%
CCOC(=O)C1=C(C)Nc2sc(C(=O)c3ccccc3)c(N)c2C1(C)c1ccccc1 (stereo not shown) [Compound 206] | – | – | Max Plateau [2]: 169.32 ± 23.07 per cent fraction of low control
CC(=O)C1=C(C)Nc2sc(C(=O)c3ccc(Cl)c(Cl)c3)c(N)c2C1(C)c1cccc(F)c1 (stereo not shown) [Compound 207, 1-[3-amino-2-(3,4 dichloro-benzoyl)-4-(3 fluoro-phenyl)-4,6-dimethyl-4,7 dihydro-thieno[2,3-b]pyridin-5-yl]-ethanone] | – | – | Max Plateau [2]: 148.73 ± 27.95 per cent fraction of low control
CC(=O)C1=C(C)N(C)c2sc(C(=O)c3ccccc3)c(N)c2C1c1ccccc1 (stereo not shown) [Compound 208, 1-(3-amino-2-benzoyl-6,7 dimethyl-4-phenyl-4,7 dihydro-thieno[2,3-b]pyridin-5-yl)-ethanone] | – | – | Max Plateau (Table 5 (R^4 substituted), maximum of dose response fit): 173.33 per cent fraction of low control
